Results published in PubChem BioAssay (NCI).
Several values for one entry are separate records, joined by “and”; a condition that tells them apart may be missing. Identical values can stand only once.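 Cultured in 96-well plates, cells were exposed to test compound for 48 hours across five concentrations. GI50 marks 50% less growth. TGI denotes the concentration required for complete inhibition of growth.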

How the values were obtained:
Assay in all cases: inhibition of tumour cell growth, NCI panel, 48 h
LOX IMVI melanoma = test system: LOX IMVI melanoma
RPMI-8226 leukemia = test system: RPMI-8226 leukemia
786-0 renal = test system: 786-0 renal
SF-268 CNS = test system: SF-268 CNS
RXF 393 renal = test system: RXF 393 renal
K-562 leukemia = test system: K-562 leukemia
MOLT-4 leukemia = test system: MOLT-4 leukemia
HCT-15 colon = test system: HCT-15 colon
SF-539 CNS = test system: SF-539 CNS
OVCAR-8 ovarian = test system: OVCAR-8 ovarian

Structure (SMILES)	GI50 (LOX IMVI melanoma)	TGI (LOX IMVI melanoma)	GI50 (RPMI-8226 leukemia)	TGI (RPMI-8226 leukemia)	GI50 (786-0 renal)	TGI (786-0 renal)	GI50 (SF-268 CNS)	TGI (SF-268 CNS)	GI50 (RXF 393 renal)	TGI (RXF 393 renal)	GI50 (K-562 leukemia)	TGI (K-562 leukemia)	GI50 (MOLT-4 leukemia)	TGI (MOLT-4 leukemia)	GI50 (HCT-15 colon)	TGI (HCT-15 colon)	GI50 (SF-539 CNS)	TGI (SF-539 CNS)	GI50 (OVCAR-8 ovarian)	TGI (OVCAR-8 ovarian)
Cc1c2ccc(N(C)c3ccnc(Nc4cccc(S(N)(=O)=O)c4)n3)cc2nn1C	6.86 µM	> 25 µM	13.6 µM	> 25 µM	13.2 µM	> 25 µM	8.51 µM	> 25 µM	7.14 µM	> 22.7 µM	5.54 µM	> 25 µM	8.81 µM	> 23.6 µM	9.34 µM	> 25 µM	2.39 µM	> 20.4 µM	9.91 µM	> 25 µM
Cc1ccc(NC(=O)Cn2c(Br)nc3c2c(=O)n(C)c(=O)n3C)cc1	6.27 µM	19.4 µM	3.25 µM	19.4 µM	2.32 µM	5.68 µM	8.3 µM	22.8 µM	2.29 µM	6.28 µM	18.5 µM	74.5 µM	27.9 µM	> 100 µM	12.2 µM	29.3 µM	1.94 µM	4.21 µM	4.89 µM	21.6 µM
CSC1=NS(=O)(=O)c2cc(C(=O)NN(C)C(=O)c3cc4c(cc3Cl)SC(SC)=NS4(=O)=O)c(Cl)cc2S1	–	> 10 µM	–	> 10 µM	–	> 10 µM	–	> 10 µM	–	> 10 µM	–	> 10 µM	–	> 10 µM	–	> 10 µM	–	> 10 µM	–	> 10 µM
CC[C@@]1(O)C(=O)OCc2c1cc1n(c2=O)Cc2cc3cc(N)ccc3nc2-1	0.0202 µM	0.207 µM and 0.0665 µM	0.106 µM and 0.0994 µM	4.45 µM	0.0119 µM	0.208 µM and 0.027 µM	–	1.04 µM and 0.146 µM	0.0489 µM	–	0.0512 µM and 0.043 µM	–	0.00648 µM	0.143 µM	0.214 µM and 0.102 µM	–	–	0.0398 µM	0.0218 µM	0.412 µM and 0.198 µM
COC(=O)C1=C(C(=O)OC)SC(=C(Cl)C(=S)Sc2ccccc2N)S1	17.8 µM	40.3 µM	51.8 µM	> 100 µM	16.9 µM	36.1 µM	29.1 µM	68.7 µM	18.1 µM	38 µM	68.7 µM	> 100 µM	> 100 µM	> 100 µM	43.8 µM	> 100 µM	18.3 µM	42.5 µM	46.6 µM	> 100 µM
Cc1cc(-c2nnc3n2CCCCC3)c(C)n1-c1ccc(Cl)c(Cl)c1	12.1 µM	32.2 µM	9.53 µM	39.9 µM	22.9 µM	56.7 µM	17.8 µM	36.6 µM	8.42 µM	29.8 µM	5.14 µM	39.3 µM	15 µM	42.9 µM	11.7 µM	> 100 µM	16.6 µM	32.4 µM	15.4 µM	64.1 µM
COC(=O)C1=C(CS(=O)c2ccccc2[N+](=O)[O-])ON(C)C1c1ccccc1 (stereo not given)	–	28.9 µM	–	> 100 µM	–	> 100 µM	–	94.6 µM	–	71.1 µM	–	78 µM	–	> 100 µM	–	76.3 µM	–	56.2 µM	–	56.2 µM
Cc1c(Cl)cccc1NC(=O)CC1C(=O)Nc2ccccc2S1(=O)=O (stereo not given)	–	29.1 µM	–	32.3 µM	–	32.4 µM	–	38.2 µM	–	28.9 µM	–	50.1 µM	–	24.3 µM	–	25.7 µM	–	28.7 µM	–	34.5 µM
CSc1ccc(/C=C2\C=C(CC(=O)NCc3ccc(C(=O)c4ccccc4)cc3)c3cc(F)ccc32)cc1	0.069 µM	6.47 µM	0.0648 µM	> 68.3 µM	0.125 µM	2.66 µM	0.138 µM	15.1 µM	0.0307 µM	0.292 µM	0.0393 µM	> 100 µM	0.15 µM	> 36.7 µM	0.0492 µM	> 51.3 µM	0.0381 µM	1.17 µM	0.0497 µM	8.12 µM
CCOc1c(Cl)cc(CNC(C)C(O)c2ccccc2)cc1OC (stereo not given)	17 µM	30.7 µM	25.5 µM	57.7 µM	16.1 µM	38.9 µM	42.1 µM	> 100 µM	16.4 µM	52.1 µM	20.9 µM	68.9 µM	26 µM	85.7 µM	21.9 µM	67.4 µM	16.8 µM	34 µM	19.8 µM	48 µM
CC(=O)OCC=C(CCl)CCC(Br)C(C)(C)Br (mixture of isomers)	–	> 10 µM	–	> 10 µM	–	> 10 µM	–	> 10 µM	–	> 10 µM	–	> 10 µM	–	> 10 µM	–	> 10 µM	–	> 10 µM	–	> 10 µM
O=C1CCCN1CC#CCN1CCCC1	> 100 µM	> 100 µM	> 100 µM	> 100 µM	> 100 µM	> 100 µM	> 100 µM	> 100 µM	> 100 µM	> 100 µM	> 100 µM	> 100 µM	> 100 µM	> 100 µM	> 100 µM	> 100 µM	> 100 µM	> 100 µM	> 100 µM	> 100 µM
c1nnc(NCNc2nncs2)s1	–	> 100 µM	–	> 100 µM	–	> 100 µM	–	> 100 µM	–	> 100 µM	–	> 100 µM	–	> 100 µM	–	> 100 µM	–	> 100 µM	–	> 100 µM
CC(=O)Nc1ccc(S(=O)(=O)NNC(=O)c2cccnc2Nc2ccc(Cl)cc2)cc1	24 µM	> 100 µM	28.6 µM	> 100 µM	48 µM	> 100 µM	22 µM	> 100 µM	37.3 µM	> 100 µM	8.5 µM	> 100 µM	49.6 µM	> 100 µM	13.7 µM	> 100 µM	15.5 µM	75.5 µM	36.2 µM	> 100 µM
OCC1OC(n2cnc3c(/C=C(/O)c4ccccc4)ncnc32)C(O)C1O (stereo not given)	–	> 100 µM	–	> 100 µM	–	> 100 µM	–	> 100 µM	–	> 100 µM	–	> 100 µM	–	> 100 µM	–	> 100 µM	–	> 100 µM	–	> 100 µM
CN[C@@H]1C[C@H]2O[C@@](C)([C@@H]1OC)n1c3ccccc3c3c4c(c5c6ccccc6n2c5c31)C(=O)N[C@@H]4O	–	0.406 µM	0.0419 µM	–	–	0.172 µM	0.008 µM	–	0.00955 µM	0.0345 µM and < 0.0219 µM	0.162 µM	–	0.0228 µM	0.0981 µM and 0.654 µM	0.0556 µM	0.3 µM and 1.33 µM	0.0196 µM	0.0314 µM and 0.0577 µM	0.0354 µM	0.164 µM and 0.719 µM
N#CC(NNC(=O)c1ccccc1O)c1cccc(O)c1 (stereo not given)	–	> 100 µM	–	> 100 µM	–	> 100 µM	–	> 100 µM	–	85.3 µM	–	> 100 µM	–	> 100 µM	–	> 100 µM	–	18.5 µM	–	> 100 µM
CC(C)[C@H]1C(=O)N[C@@H](CCCN=C(N)N)C(=O)NCC(=O)N[C@@H](CC(=O)O)C(=O)N[C@H](Cc2ccccc2)C(=O)N1C	15.5 µM	> 100 µM	> 100 µM	> 100 µM	5.54 µM	> 100 µM	7.07 µM	> 100 µM	2.63 µM	> 100 µM	> 100 µM	> 100 µM	> 100 µM	> 100 µM	3.09 µM	> 74.8 µM	> 100 µM	> 100 µM	7.35 µM	> 100 µM
Nc1ccc(S(=O)(=O)NCc2nccs2)cc1	–	41.7 µM	–	56.1 µM	–	77.3 µM	–	46.3 µM	–	> 100 µM	–	82.8 µM	–	69 µM	–	83.8 µM	–	36.2 µM	–	> 100 µM
O=[N+]([O-])c1ccc2c(c1)[O][Sn]([I])([I])[O]2	89.4 µM	> 100 µM	44.6 µM	> 100 µM	> 100 µM	> 100 µM	> 100 µM	> 100 µM	52.1 µM	> 100 µM	> 100 µM	> 100 µM	68.4 µM	> 100 µM	54.4 µM	> 100 µM	> 100 µM	> 100 µM	> 100 µM	> 100 µM
CCN(CC)CCCC(C)Nc1c2ccc(C)cc2nc2ccc(OC)cc12 (stereo not given)	1.38 µM	3.7 µM	1.75 µM	5.05 µM	2.05 µM	8.58 µM	2.53 µM	13.5 µM	1.44 µM	2.88 µM	2.92 µM	10.6 µM	0.777 µM	13.6 µM	2.32 µM	13.1 µM	1.71 µM	3.98 µM	0.521 µM	3.53 µM
CC1CCN(CC(=O)N2c3ccccc3Sc3cc4ccccc4cc32)CC1	–	> 100 µM	–	> 100 µM	–	> 100 µM	–	> 100 µM	–	> 100 µM	–	> 100 µM	–	> 100 µM	–	> 100 µM	–	> 100 µM	–	> 100 µM
